{"source": "patent US20070254835A1", "about": "“COMPOSITION AND METHOD FOR TREATING NEUROLOGICAL DISORDERS” (priority 2003, published 2007)", "origin": "cited, not measured here", "key": {"[1]": {"system": "MT-3", "conditions": "brain tissue"}, "[2]": {"system": "DNA methyltransferase", "conditions": "after incorporation at a site of methylation"}, "[3]": {"conditions": "sterile powder formulation stored at 2-8° C."}, "[4]": {"system": "HDAC", "conditions": "in words only; literature"}, "[5]": {"system": "mammalian HDAC", "conditions": "Yoshida et al. 1990"}}}
{"molecule": "Nc1ncn([C@@H]2O[C@H](CO)[C@@H](O)[C@H]2O)c(=O)n1", "note": "[5-azacytidine]", "values": [{"measurement": "MT-3 expression after treatment", "setting": "[1]", "value": "re-expression of MT-3"}]}
{"molecule": "Nc1ncn([C@H]2C[C@H](O)[C@@H](CO)O2)c(=O)n1", "note": "[decitabine, 5-aza-2′-deoxycytidine]", "values": [{"measurement": "effect on DNA methyltransferase", "setting": "[2]", "value": "irreversible inactivation"}, {"measurement": "time the drug is kept stable", "setting": "[3]", "value": "at least 2 years"}, {"measurement": "half life in vivo", "value": "short half life"}, {"measurement": "tissue distribution", "setting": "in vivo", "value": "excellent tissue distribution"}]}
{"molecule": "C/C=C1\\NC(=O)[C@H]2CSSCC/C=C/[C@H](CC(=O)N[C@H](C(C)C)C(=O)N2)OC(=O)[C@H](C(C)C)NC1=O", "note": "[Depsipeptide, depsipeptide]", "values": [{"measurement": "concentration at which HDAC is inhibited", "setting": "[4]", "value": "micromolar concentrations"}]}
{"molecule": "CC(/C=C/C(=O)NO)=C\\[C@@H](C)C(=O)c1ccc(N(C)C)cc1", "note": "[TSA, trichostatin A]", "values": [{"measurement": "inhibition of mammalian HDAC", "setting": "[5]", "value": "potent inhibitor"}]}
{"molecule": "depudecin", "values": [{"measurement": "concentration at which HDAC is inhibited", "setting": "[4]", "value": "micromolar concentrations"}]}
{"molecule": "O=C(/C=C/c1cccc(C(=O)NO)c1)NO", "note": "[CBHA, m-carboxy-cinnamic acid bishydroxamic acid]", "values": [{"measurement": "concentration at which HDAC is inhibited", "setting": "[4]", "value": "micromolar concentration or lower"}]}
